The supplement of paper PMC4862054

Assays:
Test in all cases: normalised response (% of control), CellTox Green; higher = less cell death (100 = DMSO, 0 = benzethonium chloride kill control)
Conditions in all cases: incubation time: 72 h
BT-474 = test system: BT-474
Outline: (§1)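 Each entry is the normalised signal at a single concentration within a series. The series comprised 5 concentrations in 10-fold steps over a compound-specific 10,000-fold range, placed in 384-well plates into which breast cancer cell lines were seeded as 20 µl suspension and incubated 72 h. CellTox Green (485/520 nm) fluorescence and then CellTiter-Glo luminescence were read, with signals normalised per plate to 0.1 % DMSO (100) and a positive kill control (0).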

CAL-120 = test system: CAL-120
Outline: as §1

HCC1937 = test system: HCC1937
Outline: as §1

HCC1599 = test system: HCC1599
Outline: as §1

MDA-MB-231 = test system: MDA-MB-231
Outline: as §1

Hs578T = test system: Hs578T
Outline: as §1

MDA-MB-453 = test system: MDA-MB-453
Outline: as §1

BT-549 = test system: BT-549
Outline: as §1

MCF-10A = test system: MCF-10A
Outline: as §1

Row | SMILES | normalised response (BT-474) [%] | normalised response (CAL-120) [%] | normalised response (HCC1937) [%] | normalised response (HCC1599) [%] | normalised response (MDA-MB-231) [%] | normalised response (Hs578T) [%] | normalised response (MDA-MB-453) [%] | normalised response (BT-549) [%] | normalised response (MCF-10A) [%]
1 | COc1ccc(S(=O)(=O)Nc2cccnc2Nc2ccc(O)cc2)cc1 [ABT-751] (1000 nM) | 86.1 | 87.2 | -57.9 | 87.8 | 53.4 | 78.8 | 102 | 40.4 | 81.3
2 | COc1ccc(S(=O)(=O)Nc2cccnc2Nc2ccc(O)cc2)cc1 [ABT-751] (10000 nM) | 67.4 | 92 | 108 | 74.5 | 46.2 | 29.5 | 97 | 77.8 | 42.6
3 | Cc1cc(Nc2nc(N[C@@H](C)c3ncc(F)cn3)ncc2Cl)[nH]n1 [AZD1480] (100 nM) | 71.6 | 98.6 | 100 | 93.8 | 98.9 | 96.6 | 106 | 95.4 | 85.5
4 | Cc1cc(Nc2nc(N[C@@H](C)c3ncc(F)cn3)ncc2Cl)[nH]n1 [AZD1480] (1000 nM) | 95.3 | 87.1 | 69.3 | 99.3 | 76.7 | 71.7 | 105 | 88.9 | 98.9
5 | CNC(=O)c1ccccc1Sc1ccc2c(/C=C/c3ccccn3)n[nH]c2c1 [Axitinib] (1000 nM) | 103 | 96.4 | 122 | 118 | 121 | 115 | 108 | 146 | 97.6
6 | CNC(=O)c1ccccc1Sc1ccc2c(/C=C/c3ccccn3)n[nH]c2c1 [Axitinib] (10000 nM) | 99.4 | 92.5 | 91.2 | 118 | 96.8 | 119 | 111 | 90.9 | 93.8
7 | CC(O)(CS(=O)(=O)c1ccc(F)cc1)C(=O)Nc1ccc(C#N)c(C(F)(F)F)c1 (stereo not drawn) [Bicalutamide] (1000 nM) | 104 | 97.6 | 59.6 | 101 | 115 | – | 103 | 116 | 105
8 | CC(O)(CS(=O)(=O)c1ccc(F)cc1)C(=O)Nc1ccc(C#N)c(C(F)(F)F)c1 (stereo not drawn) [Bicalutamide] (10000 nM) | 103 | 103 | 112 | 91.5 | 125 | 86 | 99 | 116 | 106
9 | CCNC(=O)CCC/C=C\C[C@@H]1[C@@H](/C=C/[C@@H](O)CCc2ccccc2)[C@H](O)C[C@@H]1O [Bimatoprost] (550 nM) | 98.5 | 97.7 | 129 | 97.1 | 88.8 | 97.8 | 99.3 | 73.3 | 108
10 | CCNC(=O)CCC/C=C\C[C@@H]1[C@@H](/C=C/[C@@H](O)CCc2ccccc2)[C@H](O)C[C@@H]1O [Bimatoprost] (5500 nM) | 57 | 98.4 | 104 | 102 | 110 | 61.1 | 98 | 121 | 86.9
11 | COc1cc(Nc2c(C#N)cnc3cc(OCCCN4CCN(C)CC4)c(OC)cc23)c(Cl)cc1Cl [Bosutinib] (1000 nM) | 94.2 | 104 | 110 | 100 | 93.6 | 78 | 114 | 106 | 93.7
12 | COc1cc(Nc2c(C#N)cnc3cc(OCCCN4CCN(C)CC4)c(OC)cc23)c(Cl)cc1Cl [Bosutinib] (10000 nM) | 19.3 | 65.6 | 32.9 | 62 | -62.9 | 72.5 | 34.6 | 33.1 | -50.5
13 | Cn1cc(C2=C(c3cn(C4CCN(Cc5ccccn5)CC4)c4ccccc34)C(=O)NC2=O)c2ccccc21 [Enzastaurin] (1000 nM) | 105 | 103 | – | 102 | 76.6 | 97.7 | 107 | 143 | 109
14 | Cn1cc(C2=C(c3cn(C4CCN(Cc5ccccn5)CC4)c4ccccc34)C(=O)NC2=O)c2ccccc21 [Enzastaurin] (10000 nM) | 95.5 | 79.2 | 121 | 120 | 113 | – | 108 | 94.8 | 94.4
15 | CC(C)(C)NC(=O)[C@H]1CC[C@H]2[C@@H]3CC[C@H]4NC(=O)C=C[C@]4(C)[C@H]3CC[C@]12C [Finasteride] (1000 nM) | 99.4 | 99.4 | 116 | 100 | 107 | 107 | 105 | 109 | 91.2
16 | CC(C)(C)NC(=O)[C@H]1CC[C@H]2[C@@H]3CC[C@H]4NC(=O)C=C[C@]4(C)[C@H]3CC[C@]12C [Finasteride] (10000 nM) | 100 | 106 | 77.4 | 97.7 | 113 | – | 85.4 | 98.9 | 94.1
17 | Nc1ccn([C@@H]2O[C@H](CO)[C@@H](O)C2(F)F)c(=O)n1 [Gemcitabine] (100 nM) | 98.1 | 100 | 89 | 87.5 | 101 | 103 | 110 | 95 | 94.5

Row | SMILES | normalised response (BT-474) [%] | normalised response (CAL-120) [%] | normalised response (HCC1937) [%] | normalised response (HCC1599) [%] | normalised response (MDA-MB-231) [%] | normalised response (Hs578T) [%] | normalised response (MDA-MB-453) [%] | normalised response (BT-549) [%] | normalised response (MCF-10A) [%]
18 | Nc1ccn([C@@H]2O[C@H](CO)[C@@H](O)C2(F)F)c(=O)n1 [Gemcitabine] (1000 nM) | 104 | 96.3 | 108 | 86.5 | 75.5 | 123 | 97.7 | 88.8 | 90.5
19 | CC(C)C[C@H](NC(=O)[C@@H](COC(C)(C)C)NC(=O)[C@H](Cc1ccc(O)cc1)NC(=O)[C@H](CO)NC(=O)[C@H](Cc1c[nH]c2ccccc12)NC(=O)[C@H](Cc1cnc[nH]1)NC(=O)[C@@H]1CCC(=O)N1)C(=O)N[C@@H](CCCNC(=N)N)C(=O)N1CCC[C@H]1C(=O)NNC(N)=O [Goserelin] (1000 nM) | 99.8 | 102 | 83.8 | 98.4 | – | 102 | 107 | 124 | –
20 | CC(C)C[C@H](NC(=O)[C@@H](COC(C)(C)C)NC(=O)[C@H](Cc1ccc(O)cc1)NC(=O)[C@H](CO)NC(=O)[C@H](Cc1c[nH]c2ccccc12)NC(=O)[C@H](Cc1cnc[nH]1)NC(=O)[C@@H]1CCC(=O)N1)C(=O)N[C@@H](CCCNC(=N)N)C(=O)N1CCC[C@H]1C(=O)NNC(N)=O [Goserelin] (10000 nM) | 84.2 | 98 | 88 | 95.5 | 94.9 | – | 95 | 107 | 75.6
21 | CC(=O)[C@]1(O)Cc2c(O)c3c(c(O)c2[C@@H](O[C@H]2C[C@H](N)[C@H](O)[C@H](C)O2)C1)C(=O)c1ccccc1C3=O [Idarubicin] (100 nM) | 72.2 | 98.8 | 110 | 101 | 114 | 103 | 108 | 98.7 | 112
22 | CC(=O)[C@]1(O)Cc2c(O)c3c(c(O)c2[C@@H](O[C@H]2C[C@H](N)[C@H](O)[C@H](C)O2)C1)C(=O)c1ccccc1C3=O [Idarubicin] (1000 nM) | 65.2 | 55.6 | 113 | 109 | 77.7 | 84 | 106 | 84.2 | 34.9
23 | C/C(=C\c1csc(C)n1)[C@@H]1C[C@@H]2O[C@]2(C)CCC[C@H](C)[C@H](O)[C@@H](C)C(=O)C(C)(C)[C@@H](O)CC(=O)N1 [Ixabepilone] (100 nM) | 100 | 105 | – | 102 | 102 | 95.5 | 107 | 65.6 | 87.7
24 | C/C(=C\c1csc(C)n1)[C@@H]1C[C@@H]2O[C@]2(C)CCC[C@H](C)[C@H](O)[C@@H](C)C(=O)C(C)(C)[C@@H](O)CC(=O)N1 [Ixabepilone] (1000 nM) | 58.1 | 99.3 | 92.4 | 104 | 55 | 115 | 101 | 62.7 | 101
25 | C=CCn1c(=O)c2cnc(Nc3ccc(N4CCN(C)CC4)cc3)nc2n1-c1cccc(C(C)(C)O)n1 [MK1775] (1000 nM) | 68.6 | 79.1 | 103 | 67.4 | -98.4 | 71.9 | 93.3 | 74.9 | 64.5
26 | C=CCn1c(=O)c2cnc(Nc3ccc(N4CCN(C)CC4)cc3)nc2n1-c1cccc(C(C)(C)O)n1 [MK1775] (10000 nM) | 44.8 | 53.2 | 65.6 | 66.1 | -15.5 | 33.3 | 89.7 | 14.7 | -5.92
27 | CO[C@@H]1[C@H](N(C)C(=O)c2ccccc2)C[C@H]2O[C@]1(C)n1c3ccccc3c3c4c(c5c6ccccc6n2c5c31)C(=O)NC4 [Midostaurin] (1000 nM) | 83.7 | 91.7 | 52.8 | 74 | 61.2 | 64.2 | 107 | 54 | 93.8
28 | CO[C@@H]1[C@H](N(C)C(=O)c2ccccc2)C[C@H]2O[C@]1(C)n1c3ccccc3c3c4c(c5c6ccccc6n2c5c31)C(=O)NC4 [Midostaurin] (10000 nM) | 87.9 | 80.8 | 91.9 | 81.2 | 60.6 | 21.1 | 91.6 | 25.2 | 93.3
29 | CO[C@@]12[C@H](COC(N)=O)C3=C(C(=O)C(C)=C(N)C3=O)N1C[C@@H]1N[C@@H]12 [Mitomycin C] (1000 nM) | 94.9 | 100 | 111 | 98.1 | 97.1 | 90.8 | 100 | 123 | 90.1
30 | CO[C@@]12[C@H](COC(N)=O)C3=C(C(=O)C(C)=C(N)C3=O)N1C[C@@H]1N[C@@H]12 [Mitomycin C] (10000 nM) | 101 | 98.4 | 108 | 99.1 | 101 | 77.6 | 104 | 99.5 | 85.4
31 | CCNC(=O)c1noc(-c2cc(C(C)C)c(O)cc2O)c1-c1ccc(CN2CCOCC2)cc1 [NVP-AUY922] (100 nM) | 80 | 90.3 | 125 | 86.9 | 46.7 | 102 | 96.2 | 140 | 57.5
32 | CCNC(=O)c1noc(-c2cc(C(C)C)c(O)cc2O)c1-c1ccc(CN2CCOCC2)cc1 [NVP-AUY922] (1000 nM) | 55.9 | 88.4 | 48.9 | 97.9 | 52.9 | -31.9 | 89 | 117 | 39.3
33 | CC1(C)CCC(c2ccc(Cl)cc2)=C(CN2CCN(c3ccc(C(=O)NS(=O)(=O)c4ccc(N[C@H](CCN5CCOCC5)CSc5ccccc5)c(S(=O)(=O)C(F)(F)F)c4)cc3)CC2)C1 [Navitoclax] (1000 nM) | 89.1 | 50.3 | 92.8 | 89.8 | -19.3 | 84.3 | 99.8 | 95.6 | –
